In patent publication EP0357061B1, “Angiogenesis inhibitory agent” (priority 1988, dated 1990) one finds Inhibition rate data, which are given here for 30 molecules.

Counter-ions that a name gives are not always drawn. Marks after values point to notes of the source that are not given here.

The first experiment has as its system bFGF-induced angiogenesis. Put plainly: rat cornea micropocket method (angiogenesis inhibitory activity). It is filed as in vivo, Sprague-Dawley rats. Particulars: rats with angiogenesis inhibitory activity / rats tested; sample pellet 20 »g; judged after 7 days. The method, then:
The product compound (I) obtained in the examples given below were evaluated for angiogenesis inhibitory activity by the rat cornea micropocket method.
Essentially the method of Gimbrone et al. [J. National Cancer Institute, 52, 413-419 (1974)] was followed. Thus, adult male Sprague-Dawley rats (11 to 16 weeks of age) were anesthetized with nembutal and locally anesthetized by instillation of xylocaine eyedrops onto the eyeball. The cornea was incised to a length of about 2 mm at about 2mm inside from the corneal circumference by means of an injection needle, and a sustained release pellet containing basic fibroblast growth factor (bFGF; bovine brain-derived, purified product; R & D) and a sustained release pellet containing the test sample were inserted side by side into the incision so that the bFGF pellet was located on the central side in the cornea. In the control group, the bFGF pellet and a sample-free pellet were inserted into the cornea. After 7 days and after 10 days, the cornea was observed under a stereoscopic microscope.
The sustained release pellets were prepared in the following manner. An ethylene-vinyl acetate copolymer (Takeda Chemical Industries) was dissolved in dichloromethane to a concentration of 8%. A 3-»l portion of the solution was air-dried on a glass dish, an aqueous solution of bFGF (250 ng) was then placed thereon and air-dried and, finally 3 »l of the above ethylene-vinyl acetate copolymer solution was placed further thereon and air-dried to give a laminate consisting of two copolymer layers and a bFGF layer sandwiched therebetween. This sandwich sheet was made round into a bFGF pellet. The test sample pellets were prepared by dissolving each sample in ethanol in a concentration of 20 »g/2 »l, mixing the solution (2 »l) with 6 »l of an ethylene-vinyl acetate copolymer solution, air-drying the mixed solution on a glass dish and making the thus-obtained sheet round.
For `CO[C@@H]1[C@H](OC(=O)Nc2ccccc2)CC[C@]2(CO2)[C@H]1[C@@]1(C)O[C@@H]1CC=C(C)C` [Example 11, O-Phenylcarbamoylfumagillol], the Inhibition rate is recorded as 9/9*.

Staying with this experiment, now noted: rats with angiogenesis inhibitory activity / rats tested; sample pellet 20 »g; judged after 10 days.
Consider `CO[C@@H]1[C@H](OC(=O)CCCC(=O)O)CC[C@]2(CO2)[C@H]1[C@@]1(C)O[C@@H]1CC=C(C)C` [Example 4, Sodium salt of O-(4-carboxybutanoyl)fumagillol], for which the Inhibition rate is reported as 6/7.

Consider `COC1C(OC(=O)NC(=O)NC(=O)c2ccccc2)CCC2(CO2)C1C1(C)OC1CC=C(C)C` (stereo not drawn) [Example 75, O-(N'-Benzoylallophanoyl)fumagillol], for which the Inhibition rate was 8/8.

As for `CO[C@@H]1[C@H](OC(=O)NC(C)=O)CC[C@]2(CO2)[C@H]1[C@@]1(C)O[C@@H]1CC=C(C)C` [Example 29, O-Acetylcarbamoylfumagillol], the Inhibition rate is listed as 7/7.

In the case of `CO[C@@H]1[C@H](OC(=O)CCCCl)CC[C@]2(CO2)[C@H]1[C@@]1(C)O[C@@H]1CC=C(C)C` [Example 49, O-(4-Chlorobutyryl)fumagillol], the Inhibition rate is on record as 4/5.

With `CO[C@@H]1[C@H](OC(=O)N2CCCCC2)CC[C@]2(CO2)[C@H]1[C@@]1(C)O[C@@H]1CC=C(C)C` [Example 25, O-Piperidinocarbonylfumagillol], the Inhibition rate is 6/8.

`CO[C@@H]1[C@H](OC(=O)NC(=O)c2ccccc2)CC[C@]2(CO2)[C@H]1[C@@]1(C)O[C@@H]1CC=C(C)C` [Example 32, O-Benzoylcarbamoylfumagillol]: the Inhibition rate is listed as 9/12.

As for `CO[C@@H]1[C@H](OC(=O)N2CCOCC2)CC[C@]2(CO2)[C@H]1[C@@]1(C)O[C@@H]1CC=C(C)C` [Example 24, O-Morpholinocarbonylfumagillol], the Inhibition rate is on record as 5/12.

As to `CO[C@@H]1[C@H](OC(=O)NCC[N+](C)(C)C)CC[C@]2(CO2)[C@H]1[C@@]1(C)O[C@@H]1CC=C(C)C` [Example 56, O-[2-(N,N,N-Trimethylammonio)ethylcarbamoyl]fumagillol iodide], the Inhibition rate is recorded as 4/7.

With `CO[C@@H]1[C@H](OCc2cccc3ccccc23)CC[C@]2(CO2)[C@H]1[C@@]1(C)O[C@@H]1CC=C(C)C` [Example 46, O-(1-Naphthylmethyl)fumagillol], the Inhibition rate is recorded as 7/10.

In the case of `CO[C@@H]1[C@H](OC(=O)CCC(=O)O)CC[C@]2(CO2)[C@H]1[C@@]1(C)O[C@@H]1CC=C(C)C` [Example 2, Sodium salt of O-(3-carboxypropionyl)fumagillol], the Inhibition rate is listed as 6/6.

`CO[C@@H]1[C@H](OC(=O)NC(=O)CSC)CC[C@]2(CO2)[C@H]1[C@@]1(C)O[C@@H]1CC=C(C)C` [Example 65, O-(Methylthioacetylcarbamoyl)fumagillol]: the Inhibition rate is on record as 8/8.

`CO[C@@H]1[C@H](OS(C)(=O)=O)CC[C@]2(CO2)[C@H]1[C@@]1(C)O[C@@H]1CC=C(C)C` [Example 21, O-Methylsulfonylfumagillol]: the Inhibition rate is given as 4/4.

As for `CO[C@@H]1[C@H](OC(=O)NC(=O)CSc2ccncc2)CC[C@]2(CO2)[C@H]1[C@@]1(C)O[C@@H]1CC=C(C)C` [Example 64, O-[(4-Pyridyl)thioacetylcarbamoyl]fumagillol], the Inhibition rate is recorded as 5/5.

As for `CO[C@@H]1[C@H](OC(=O)N(CCN(C)C)C(C)=O)CC[C@]2(CO2)[C@H]1[C@@]1(C)O[C@@H]1CC=C(C)C` [Example 57, O-[N-Acetyl-(2-dimethylaminoethylcarbamoyl)]fumagillol], the Inhibition rate is given as 6/6.

For the molecule `CO[C@@H]1[C@H](OC(=O)NC(=O)CSc2cccc[n+]2[O-])CC[C@]2(CO2)[C@H]1[C@@]1(C)O[C@@H]1CC=C(C)C` [Example 43, O-[(Pyridine-N-oxide-2-yl)thioacetylcarbamoyl]fumagillol], the Inhibition rate is recorded as 7/7.

As to `CO[C@@H]1[C@H](OC(=O)NC(=O)CSc2nc3ccccc3s2)CC[C@]2(CO2)[C@H]1[C@@]1(C)O[C@@H]1CC=C(C)C` [Example 42, O-(2-Benzothiazolylthioacetylcarbamoyl)fumagillol], the Inhibition rate was 7/7.

For the molecule `CO[C@@H]1[C@H](OC(=O)NC(=O)CSc2nnc(C)s2)CC[C@]2(CO2)[C@H]1[C@@]1(C)O[C@@H]1CC=C(C)C` [Example 53, O-[(2-methyl-1,3,4-thiadiazol-5-yl)thioacetylcarbamoyl]fumagillol], the Inhibition rate is listed as 8/8.

With `CO[C@@H]1[C@H](OC(=O)NS(=O)(=O)c2ccc(C)cc2)CC[C@]2(CO2)[C@H]1[C@@]1(C)O[C@@H]1CC=C(C)C` [Example 38, O-(p-Toluenesulfonylcarbamoyl)fumagillol], the Inhibition rate was 13/15.

For the molecule `CCN1CCN(C(=O)O[C@@H]2CC[C@]3(CO3)[C@@H]([C@@]3(C)O[C@@H]3CC=C(C)C)[C@@H]2OC)CC1` [Example 39, O-[1-(4-Ethylpiperazinyl)carbonyl]fumagillol], the Inhibition rate is 8/8.

On to `CO[C@@H]1[C@H](OC(=O)NC(=O)COC(C)=O)CC[C@]2(CO2)[C@H]1[C@@]1(C)O[C@@H]1CC=C(C)C` [Example 40, O-Acetoxyacetylcarbamoylfumagillol], for which the Inhibition rate is listed as 6/6.

For the molecule `CO[C@@H]1[C@H](OC(N)=O)CC[C@]2(CO2)[C@H]1[C@@]1(C)O[C@@H]1CC=C(C)C` [Example 23, O-Carbamoylfumagillol], the Inhibition rate is 6/8.

`CO[C@@H]1[C@H](OC(=O)Nc2ccc(Cl)cc2)CC[C@]2(CO2)[C@H]1[C@@]1(C)O[C@@H]1CC=C(C)C` [Example 35, O-(p-Chlorophenylcarbamoyl)fumagillol]: the Inhibition rate is 4/8.

As for `C=CC(=O)NC(=O)O[C@@H]1CC[C@]2(CO2)[C@@H]([C@@]2(C)O[C@@H]2CC=C(C)C)[C@@H]1OC` [Example 58, O-Acryloylcarbamoylfumagillol], the Inhibition rate is 6/6.

Consider `CO[C@@H]1[C@H](OC(=O)NC(=O)CSc2nc3ccccc3[nH]2)CC[C@]2(CO2)[C@H]1[C@@]1(C)O[C@@H]1CC=C(C)C` [Example 61, O-[(2-Benzoimidazolyl)thioacetylcarbamoyl]fumagillol], for which the Inhibition rate is 7/7.

Take `CO[C@@H]1[C@H](OC(=O)Nc2ccc(F)cc2F)CC[C@]2(CO2)[C@H]1[C@@]1(C)O[C@@H]1CC=C(C)C` [Example 37, O-(2,4-Difluorophenylcarbamoyl)fumagillol]: the Inhibition rate is reported as 11/11.

`CO[C@@H]1[C@H](OC(=O)c2ccccc2C(=O)O)CC[C@]2(CO2)[C@H]1[C@@]1(C)O[C@@H]1CC=C(C)C` [Example 6, O-(2-Carboxybenzoyl)fumagillol]: the Inhibition rate is reported as 6/7.

As for `COC1C(OC(=O)NC(=O)CSc2cnn[nH]2)CCC2(CO2)C1C1(C)OC1CC=C(C)C` (stereo not drawn) [Example 67, O-[(1,2,3-Triazol-5-yl)thioacetylcarbamoyl]fumagillol], the Inhibition rate is reported as 5/5.

Take `CO[C@@H]1[C@H](OC(=O)NC(=O)CSc2nc3ccccc3o2)CC[C@]2(CO2)[C@H]1[C@@]1(C)O[C@@H]1CC=C(C)C` [Example 60, O-[(2-Benzoxazolyl)thioacetylcarbamoyl]fumagillol]: the Inhibition rate is reported as 4/6.

Turning to `CO[C@@H]1[C@H](OC(=O)NCCN(C)C)CC[C@]2(CO2)[C@H]1[C@@]1(C)O[C@@H]1CC=C(C)C` [Example 28, O-(2-Dimethylaminoethylcarbamoyl)fumagillol], the Inhibition rate is 11/11.
